For orientation: IC50 means the point on the concentration scale where inhibition reaches its midpoint. Broadly, the viability, T/C is the result in the treated group divided by that in the control group, in per cent.

The record followed here is PubChem BioAssay AID1918999 (Molecular Pharmacology Branch, DTP, NCI, 2023).

Molecules are shown by their SMILES. Where “and” joins values, the source holds several entries; their conditions need not be identical. Identical values can stand only once. Some results are limits rather than exact numbers.

This assay relates to 556581-035-R-J1-PDC complex spheroid growth. Description: Anticancer human tumor 556581-035-R-J1-PDC patient-derived ovarian carcinoma cell line growth inhibition [AhR]. The note with it: for viability, T/C: stronger effect = lower value. An outline of the steps:
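Agents were dosed in half-log steps down from roughly clinical Cmax, or from 10 microM where Cmax was unknown, alone and with AhR antagonists. Read-out: percent test/control growth of tumor spheroids containing HUVEC and MSC stromal cells.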

The mark [1] stands for this setting: curve of first compound, second compound 0.1 µM.
Where [2] appears, read: curve of first compound, second compound 0.316 µM.
The mark [3] stands for this setting: curve of first compound, second compound 1 µM.
Setting [4] is: curve of first compound, second compound 3.16 µM.
Setting [5] is: curve of first compound, second compound 10 µM.
Setting [6] is: second compound 0.1 µM, first compound 0.00949 µM.
Setting [7] is: second compound 0.1 µM, first compound 0.03 µM.
[8] abbreviates: second compound 0.1 µM, first compound 0.0949 µM.
The mark [9] stands for this setting: second compound 0.1 µM, first compound 0.3 µM.
[10] abbreviates: second compound 0.1 µM, first compound 0.949 µM.
Where [11] appears, read: second compound 0.1 µM, first compound 3 µM.
Where [12] appears, read: second compound 0.316 µM, first compound 0.00949 µM.
Where [13] appears, read: second compound 0.316 µM, first compound 0.03 µM.
[14] abbreviates: second compound 0.316 µM, first compound 0.0949 µM.
The mark [15] stands for this setting: second compound 0.316 µM, first compound 0.3 µM.
[16] abbreviates: second compound 0.316 µM, first compound 0.949 µM.
The mark [17] stands for this setting: second compound 0.316 µM, first compound 3 µM.
Setting [18] is: second compound 1 µM, first compound 0.00949 µM.
The mark [19] stands for this setting: second compound 1 µM, first compound 0.03 µM.
[20] abbreviates: second compound 1 µM, first compound 0.0949 µM.
Where [21] appears, read: second compound 1 µM, first compound 0.3 µM.
Setting [22] is: second compound 1 µM, first compound 0.949 µM.
The mark [23] stands for this setting: second compound 1 µM, first compound 3 µM.
Setting [24] is: second compound 3.16 µM, first compound 0.00949 µM.
Where [25] appears, read: second compound 3.16 µM, first compound 0.03 µM.
[26] abbreviates: second compound 3.16 µM, first compound 0.0949 µM.
The mark [27] stands for this setting: second compound 3.16 µM, first compound 0.3 µM.
Setting [28] is: second compound 3.16 µM, first compound 0.949 µM.
Where [29] appears, read: second compound 3.16 µM, first compound 3 µM.
The mark [30] stands for this setting: second compound 10 µM, first compound 0.00949 µM.
[31] abbreviates: second compound 10 µM, first compound 0.03 µM.
[32] abbreviates: second compound 10 µM, first compound 0.0949 µM.
Setting [33] is: second compound 10 µM, first compound 0.3 µM.
Where [34] appears, read: second compound 10 µM, first compound 0.949 µM.
Where [35] appears, read: second compound 10 µM, first compound 3 µM.
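Wherever viability, T/C is given: compound exposure lasted 7 days; 100% = DMSO vehicle control growth.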

Consider `O=C(C=Cn1cnc(-c2cc(C(F)(F)F)cc(C(F)(F)F)c2)n1)NNc1cnccn1` + CC(CO)NC(=O)c1cc(-c2ccc(Cl)cc2)nn(-c2cnn(C)c2)c1=O, for which the IC50 was above 3 µM under setting [1]; above 3 µM under setting [2]; above 3 µM under setting [3]; above 3 µM under setting [4]; above 3 µM under setting [5]. The viability, T/C by setting is: under setting [6], 84%; under setting [7], 84.2%; under setting [8], 87.6%; under setting [9], 69.3%; under setting [10], 66.9%; under setting [11], 62.5%. Moreover, the viability, T/C by setting is: under setting [12], 87.3%; under setting [13], 93%; under setting [14], 81%; under setting [15], 76%; under setting [16], 71.2%; under setting [17], 66%. Further, the viability, T/C runs as follows: under setting [18], 88.7%; under setting [19], 103%; under setting [20], 84%; under setting [21], 73.8%; under setting [22], 68.2%; under setting [23], 65.8%. Besides, the viability, T/C was 98.2% under setting [24]; 81.4% under setting [25]; 80.5% under setting [26]; 70% under setting [27]; 62.7% under setting [28]; 63% under setting [29]. Also, the viability, T/C is, setting by setting: under setting [30], 93.1%; under setting [31], 80%; under setting [32], 75.9%; under setting [33], 77.9%; under setting [34], 72.7%; under setting [35], 72.7%.
Turning to `NS(=O)(=O)OCC1CC(n2ccc3c(NC4CCc5ccccc54)ncnc32)CC1O` (stereo unspecified), the viability, T/C reads like this: (compound 0.0316 µM) 100% and 99.4% and 89%; (compound 0.1 µM) 109% and 118% and 98.8%; (compound 0.316 µM) 100% and 104% and 111%; (compound 1 µM) 90% and 108% and 103%; (compound 3.16 µM) 88% and 106% and 113%; (compound 10 µM) 73.4% and 86.2% and 81.5%. Further, the IC50 (curve of compound) is above 10 µM.
On to `Nc1ccn(C2OC(CO)C(O)C2(F)F)c(=O)n1` (stereo unspecified) + Cc1ccccc1N=Nc1ccc(NC(=O)c2ccnn2C)c(C)c1, for which the 50% inhibitory concentration (IC50) was below 0.0316 µM under setting [1]; below 0.0316 µM under setting [2]; below 0.0316 µM under setting [3]; below 0.0316 µM under setting [4]; below 0.0316 µM under setting [5]. Further, the viability, T/C reads like this: (second compound 0.1 µM, first compound 0.0316 µM) 35.5%; (second compound 0.1 µM, first compound 0.1 µM) 41.6%; (second compound 0.1 µM, first compound 0.316 µM) 38.4%; (second compound 0.1 µM, first compound 1 µM) 34.7%; (second compound 0.1 µM, first compound 3.16 µM) 35.5%; (second compound 0.1 µM, first compound 10 µM) 34%. Besides, the viability, T/C runs as follows: (second compound 0.316 µM, first compound 0.0316 µM) 31.9%; (second compound 0.316 µM, first compound 0.1 µM) 37.4%; (second compound 0.316 µM, first compound 0.316 µM) 38.4%; (second compound 0.316 µM, first compound 1 µM) 37.6%; (second compound 0.316 µM, first compound 3.16 µM) 35.4%; (second compound 0.316 µM, first compound 10 µM) 32.4%. Further, the viability, T/C is 38.3% (second compound 1 µM, first compound 0.0316 µM); 37.2% (second compound 1 µM, first compound 0.1 µM); 41.1% (second compound 1 µM, first compound 0.316 µM); 36.2% (second compound 1 µM, first compound 1 µM); 33.9% (second compound 1 µM, first compound 3.16 µM); 30% (second compound 1 µM, first compound 10 µM). The viability, T/C reads like this: (second compound 3.16 µM, first compound 0.0316 µM) 36.1%; (second compound 3.16 µM, first compound 0.1 µM) 36.9%; (second compound 3.16 µM, first compound 0.316 µM) 37.6%; (second compound 3.16 µM, first compound 1 µM) 37.7%; (second compound 3.16 µM, first compound 3.16 µM) 37.1%; (second compound 3.16 µM, first compound 10 µM) 29%. Also, the viability, T/C by setting is: (second compound 10 µM, first compound 0.0316 µM) 38%; (second compound 10 µM, first compound 0.1 µM) 42.6%; (second compound 10 µM, first compound 0.316 µM) 40.9%; (second compound 10 µM, first compound 1 µM) 39.7%; (second compound 10 µM, first compound 3.16 µM) 37.7%; (second compound 10 µM, first compound 10 µM) 35.6%.
Consider `COc1cc(C2c3cc4c(cc3C(OC3OC5COC(C)OC5C(O)C3O)C3COC(=O)C23)OCO4)cc(OC)c1O` (stereo unspecified), for which the viability, T/C was 104% and 107% and 99.2% (compound 0.0316 µM); 103% (2×) and 100% (compound 0.1 µM); 84.9% and 82.3% and 74.7% (compound 0.316 µM); 78.2% and 84.1% and 76.3% (compound 1 µM); 62.1% and 66.4% and 67.5% (compound 3.16 µM); 45.1% and 44.2% and 47.1% (compound 10 µM). Further, the IC50 (curve of compound) was 7.21 µM and 8.06 µM and 9.56 µM.
Take `O=C(C=Cn1cnc(-c2cc(C(F)(F)F)cc(C(F)(F)F)c2)n1)NNc1cnccn1` + Cc1ccccc1N=Nc1ccc(NC(=O)c2ccnn2C)c(C)c1: the IC50 is above 3 µM under setting [1]; 1.75 µM under setting [2]; above 3 µM under setting [3]; above 3 µM under setting [4]; above 3 µM under setting [5]. The viability, T/C under setting [6] was 100%; the viability, T/C under setting [7] was 99.8%; the viability, T/C under setting [8] was 80.3%; the viability, T/C under setting [9] is 78.5%; the viability, T/C under setting [10] is 72.5%; the viability, T/C under setting [11] is 54.4%. Moreover, the viability, T/C is, setting by setting: under setting [12], 106%; under setting [13], 92.7%; under setting [14], 91%; under setting [15], 73.3%; under setting [16], 60.7%; under setting [17], 40.8%. Also, the viability, T/C by setting is: under setting [18], 93%; under setting [19], 93.4%; under setting [20], 85.5%; under setting [21], 84.4%; under setting [22], 72.5%; under setting [23], 49.7%. The viability, T/C was 80.3% under setting [24]; 87.7% under setting [25]; 79.8% under setting [26]; 68.4% under setting [27]; 72.2% under setting [28]; 60.4% under setting [29]. In addition, the viability, T/C runs as follows: under setting [30], 81.1%; under setting [31], 81.6%; under setting [32], 82.7%; under setting [33], 82.4%; under setting [34], 71.9%; under setting [35], 56.9%.
With `CC1(C)CCC(CN2CCN(c3ccc(C(=O)NS(=O)(=O)c4ccc(NCC5CCOCC5)c([N+](=O)[O-])c4)c(Oc4cnc5[nH]ccc5c4)c3)CC2)=C(c2ccc(Cl)cc2)C1`, the viability, T/C by setting is: (compound 0.0316 µM) 98.3% and 100% and 107%; (compound 0.1 µM) 102% and 104% and 108%; (compound 0.316 µM) 88.4% and 106% and 96.5%; (compound 1 µM) 90.5% (2×) and 107%; (compound 3.16 µM) 97.1% and 101% and 97.2%; (compound 10 µM) 75% and 79.2% and 73.8%. For the setting “curve of compound”, the 50% inhibitory concentration (IC50) was above 10 µM.
